The values that follow come from US8877741B2, “Pyrrolidine derivatives, pharmaceutical compositions and uses thereof” (Boehringer Ingelheim International GmbH, priority 2013, dated 2014).

The assay concerns the target human ACC2 (Homo sapiens (Human), UniProt O00763). Put plainly: ACC2 assay, spectrophotometric 384 well assay (NADH-linked kinetic method). The note with it: human ACC2 construct lacking the 128 N-terminal amino acids; coupled lactate dehydrogenase/pyruvate kinase reaction, 340 nm, 25° C. Format: biochemical. As to the method: Spectrophotometric 384 Well Assay
Malonyl CoA formation by acetyl CoA carboxylases is stoichometrically linked to the consumption of ATP. ACC2 activity is measured in a NADH-linked kinetic method measuring ADP generated during the ACC reaction using a coupled lactate dehydrogenase/pyruvate kinase reaction.
For biological testing, a human ACC2 construct which lacks the 128 amino acids at the N-terminus for increased solubility (nt 385-6966 in Genbank entry AJ575592) is cloned. The protein is then expressed in insect cells using a baculoviral expression system. Protein purification is performed by anion exchange.
All compounds are dissolved in dimethyl sulfoxide (DMSO) to a concentration of 10 mM.
The enzymatic reaction is then started by addition of a mixture of NADH, acetyl Coenzyme A (both 2000 μM f.c.) and ATP (500 uM f.c.). The decrease of the optical density (slope S) is then determined at 25° C. at a wavelength of 340 nm over 15 minutes in a spectrophotometric reader.
Each assay microtiter plate contains wells with vehicle instead of compound as controls for the non-inhibited enzyme (100% CTL; ‘HIGH’) and wells without acetyl-CoA as controls for non-specific NADH degradation (0% CTL; ‘LOW’).
The slope S is used for calculation of % CTL=(S(compound)−S(‘LOW’))/(S(‘HIGH’)−S(‘LOW’))*100.
For IC50 value determination, the sample slope in the presence of the test compound after subtraction of the low controls (S(compound)−S(‘LOW’)) are used.
An IC50 value is derived from the compound slopes at different dosages after subtraction of the low controls (S(compound)−S(‘LOW’)) by non-linear regression curve fitting (equation y=(A+((B−A)/(1+((C/x)^D))))).

Sequence of human ACC2 (O00763 129-2458): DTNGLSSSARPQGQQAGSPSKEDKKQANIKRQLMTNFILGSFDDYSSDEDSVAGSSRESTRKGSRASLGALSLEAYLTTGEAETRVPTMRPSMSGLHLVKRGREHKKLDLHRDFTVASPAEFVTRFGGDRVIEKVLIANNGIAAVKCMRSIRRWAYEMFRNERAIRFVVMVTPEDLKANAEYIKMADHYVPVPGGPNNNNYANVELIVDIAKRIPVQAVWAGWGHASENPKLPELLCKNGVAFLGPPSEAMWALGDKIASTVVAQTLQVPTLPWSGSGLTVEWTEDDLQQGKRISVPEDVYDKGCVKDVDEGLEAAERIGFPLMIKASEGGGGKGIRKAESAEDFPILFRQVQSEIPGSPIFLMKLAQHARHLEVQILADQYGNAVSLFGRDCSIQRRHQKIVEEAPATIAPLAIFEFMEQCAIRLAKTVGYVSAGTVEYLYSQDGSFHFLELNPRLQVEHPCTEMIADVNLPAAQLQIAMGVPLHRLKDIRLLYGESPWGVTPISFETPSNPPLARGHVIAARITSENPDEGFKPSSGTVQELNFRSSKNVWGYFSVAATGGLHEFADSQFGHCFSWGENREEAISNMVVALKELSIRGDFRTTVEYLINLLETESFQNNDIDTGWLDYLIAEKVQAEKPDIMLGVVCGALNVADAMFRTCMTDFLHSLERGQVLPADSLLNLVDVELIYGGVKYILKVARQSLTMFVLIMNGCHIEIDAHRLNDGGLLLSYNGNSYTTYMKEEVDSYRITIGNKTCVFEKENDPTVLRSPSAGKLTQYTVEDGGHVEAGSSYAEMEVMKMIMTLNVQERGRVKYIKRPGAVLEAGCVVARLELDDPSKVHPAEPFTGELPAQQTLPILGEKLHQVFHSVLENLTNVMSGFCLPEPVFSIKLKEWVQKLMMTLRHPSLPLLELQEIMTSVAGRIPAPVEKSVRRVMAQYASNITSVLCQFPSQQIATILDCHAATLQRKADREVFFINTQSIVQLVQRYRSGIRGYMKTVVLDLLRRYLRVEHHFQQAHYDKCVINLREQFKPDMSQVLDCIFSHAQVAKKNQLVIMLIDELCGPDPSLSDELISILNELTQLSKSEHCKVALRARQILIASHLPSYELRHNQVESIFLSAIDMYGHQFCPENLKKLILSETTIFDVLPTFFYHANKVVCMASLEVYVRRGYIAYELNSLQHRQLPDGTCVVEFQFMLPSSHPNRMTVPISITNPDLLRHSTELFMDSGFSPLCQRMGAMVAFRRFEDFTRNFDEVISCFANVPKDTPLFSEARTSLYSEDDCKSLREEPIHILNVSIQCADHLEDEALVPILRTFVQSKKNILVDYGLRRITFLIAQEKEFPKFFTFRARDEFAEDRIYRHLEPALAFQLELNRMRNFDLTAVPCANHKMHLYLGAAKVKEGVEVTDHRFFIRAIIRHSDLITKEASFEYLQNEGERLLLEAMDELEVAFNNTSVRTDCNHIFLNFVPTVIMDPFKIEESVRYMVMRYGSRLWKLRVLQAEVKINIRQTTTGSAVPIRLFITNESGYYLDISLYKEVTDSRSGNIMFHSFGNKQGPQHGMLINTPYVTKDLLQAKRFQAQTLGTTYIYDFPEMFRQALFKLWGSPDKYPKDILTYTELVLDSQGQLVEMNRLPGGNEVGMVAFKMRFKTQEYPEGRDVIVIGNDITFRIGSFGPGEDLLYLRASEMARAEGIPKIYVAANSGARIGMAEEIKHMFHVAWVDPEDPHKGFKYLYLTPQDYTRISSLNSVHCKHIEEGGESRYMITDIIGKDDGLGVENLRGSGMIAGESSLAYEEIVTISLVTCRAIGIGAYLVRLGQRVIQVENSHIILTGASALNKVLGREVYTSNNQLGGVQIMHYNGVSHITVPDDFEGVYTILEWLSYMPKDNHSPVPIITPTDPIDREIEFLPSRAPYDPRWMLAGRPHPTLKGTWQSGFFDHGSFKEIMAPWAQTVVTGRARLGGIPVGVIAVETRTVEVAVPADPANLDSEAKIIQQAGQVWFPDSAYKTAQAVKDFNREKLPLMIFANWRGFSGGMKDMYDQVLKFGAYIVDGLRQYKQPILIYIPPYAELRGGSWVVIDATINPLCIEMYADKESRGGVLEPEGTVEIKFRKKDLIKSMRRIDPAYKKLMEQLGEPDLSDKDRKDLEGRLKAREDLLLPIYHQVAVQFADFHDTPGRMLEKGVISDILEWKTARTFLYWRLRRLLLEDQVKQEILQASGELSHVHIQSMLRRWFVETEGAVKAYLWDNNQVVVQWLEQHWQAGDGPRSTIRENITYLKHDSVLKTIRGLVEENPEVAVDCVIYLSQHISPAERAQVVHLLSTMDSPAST

As a reminder, the IC50 is the concentration at which inhibition is half-maximal. Low values mean inhibition by little substance, high ones a need for much substance. Turning to `CC(=O)N[C@@H](C)c1ccc(O[C@@H]2CCN(c3cccc(N4CCC(C)(O)C4)n3)C2)cc1` (some centres unmarked) [Example 10.47], half-maximal inhibition (IC50) was put at 455 nM.

For the compound `Cc1c(N2CC[C@@H](Oc3ccc([C@H](C)NC(=O)/C=C/C4CC4)cc3)C2)ccnc1OCC1CC1` [Example 9.59], the IC50 worked out at 235 nM.

Consider `C[C@H](NC(=O)c1cnco1)c1ccc(OC2CCN(c3ccnc(OCC4CC4)c3)C2)cc1` (some centres unmarked) [Example 2.67], for which the half-inhibitory concentration (IC50) is 46 nM.

For the compound `Cc1[nH]ncc1C(=O)N[C@@H](C)c1ccc(OC2CCN(c3ccnc(OCC(F)F)c3)C2)cc1` (some centres unmarked) [Example 2.98], half-maximal inhibition (IC50) required 282 nM.

The compound `CCOc1ccnc(N2CC[C@@H](Oc3ccc([C@H](C)NC(C)=O)cc3)C2)c1F` [Example 9.69] yielded an IC50 of 603 nM.

`CCCOc1cc(N2CCC(Oc3ccc([C@H](C)NC(C)=O)cc3)C2)c(F)cn1` (some centres unmarked) [Example 1.72]: 70 nM corresponded to half-maximal inhibition (IC50).

As for `CCC(=O)N[C@@H](C)c1ccc(OC2CCN(c3ccnc(OCC4CC4)c3)C2)cc1` (some centres unmarked) [Example 2.66], the 50% inhibitory concentration (IC50) is 50 nM.

`COc1c(N2CC[C@@H](Oc3ccc([C@H](C)NC(C)=O)cc3)C2)ccnc1OCC(F)F` [Example 14.1, N—((S)-1-(4-((R)-1-(2-(2,2-Difluoroethoxy)-3-methoxypyridin-4-yl)pyrrolidin-3-yloxy)phenyl)ethyl)acetamide]: the IC50 was found to be 58 nM.

Regarding `CC(=O)N[C@@H](C)c1ccc(OC2CCN(c3ncc(OC4CC4)cc3F)C2)cc1` (some centres unmarked) [Example 1.67], the concentration for half-maximal inhibition (IC50) was 463 nM. This IC50 lies about 8-fold higher than the previous one.

In turn, `CCC(=O)Nc1nc(C)c(C(=O)N[C@@H](C)c2ccc(O[C@@H]3CCN(c4ccnc(NCC(F)F)c4Cl)C3)cc2)s1` [Example 1.143] gave a concentration for half-maximal inhibition (IC50) of 116 nM.

As to `COC1CN(c2nccc(N3CC[C@@H](Oc4ccc([C@H](C)NC(C)=O)cc4)C3)c2F)C1` [Example 1.109], it took 155 nM to reach half-maximal inhibition (IC50).

Take `CC(=O)N[C@@H](C)c1ccc(O[C@@H]2CCN(c3ccnc(N4CCCC4)c3Cl)C2)cc1` [Example 1.148]: 47 nM corresponded to half-maximal inhibition (IC50). Compared with the last compound, the IC50 is about 3.3-fold lower.

For the compound `CC(=O)N[C@@H](C)c1ccc(O[C@@H]2CCN(c3ccnc(N4CCC4)c3F)C2)cc1` [Example 1.101], the IC50 was determined as 92 nM.

`C[C@H](NC(=O)C1CC1)c1ccc(OC2CCN(c3cccc(C(F)(F)F)n3)C2)cc1` (some centres unmarked) [Example 2.49] displayed an IC50 of 560 nM.

As for `CC(=O)N[C@@H](C)c1ccc(O[C@@H]2CCN(c3ccnc(OCC(C)O)c3F)C2)cc1` (some centres unmarked) [Example 9.74], the midpoint of inhibition, the IC50, lay at 220 nM.

`C[C@H](NC(=O)c1cnco1)c1ccc(OC2CCN(c3ccc(OC[C@H]4CC4(F)F)cn3)C2)cc1` (some centres unmarked) [Example 2.92] had an IC50 of 110 nM.

Regarding `CC(=O)N[C@@H](C)c1ccc(O[C@@H]2CCN(c3nc(N4CCCCC4)c(F)cc3F)C2)cc1` [Example 10.6], the IC50 was found to be 827 nM. This IC50 is about 7.5-fold higher than that of the compound before.

With `C[C@H](NC(=O)c1cnc(N)o1)c1ccc(OC2CCN(c3ccnc(OCC4CC4)c3)C2)cc1` (some centres unmarked) [Example 2.74], the half-inhibitory concentration (IC50) came to 359 nM.

`CC(=O)N[C@@H](C)c1ccc(O[C@@H]2CCN(c3ccc(OC[C@@H]4CC4(F)F)cn3)C2)cc1` [Example 1.117] returned an IC50 of 753 nM.

`C[C@H](NC(=O)c1cncs1)c1ccc(OC2CCN(c3ccnc(OCC(F)F)c3)C2)cc1` (some centres unmarked) [Example 2.101] had an IC50 of 76 nM. Compared with the last compound, the IC50 is about 9.9-fold lower.

Take `CC(=O)N[C@@H](C)c1ccc(O[C@@H]2CCN(c3ccnc(OCCC(C)C)c3)C2)cc1` [Example 9.34]: half-maximal inhibition (IC50) required 95 nM.

`CCCOc1cnc(N2CC[C@@H](Oc3ccc([C@H](C)NC(=O)c4sc(NC(C)=O)nc4C)cc3)C2)c(F)c1` [Example 1.48] came in with a half-maximal inhibitory concentration (IC50) of 352 nM.

Consider `C[C@H](NC(=O)C(F)F)c1ccc(OC2CCN(c3ccnc(OCC(F)F)c3)C2)cc1` (some centres unmarked) [Example 2.97], for which the half-inhibitory concentration (IC50) is 140 nM.

In the case of `COC(=O)N[C@@H](C)c1ccc(OC2CCN(c3cccc(C(F)(F)F)n3)C2)cc1` (some centres unmarked) [Example 4.2], the IC50 was 139 nM. The IC50 values of the last two compounds are within 1.5-fold of each other.

In turn, `CCNC(=O)N[C@@H](C)c1ccc(OC2CCN(c3ccnc(OCC4CC4)c3)C2)cc1` (some centres unmarked) [Example 3.4] registered an IC50 of 75 nM.

Take `CC(=O)N[C@@H](C)c1ccc(OC2CCN(c3ccc(OCC(C)(C)F)cn3)C2)cc1` (some centres unmarked) [Example 1.87]: the midpoint of inhibition, the IC50, lay at 677 nM.

`CC(=O)N[C@@H](C)c1ccc(OC2CCN(c3cccc(C4CC4)n3)C2)cc1` (some centres unmarked) [Example 1.38] had an IC50 of 95 nM. Against the preceding compound, the IC50 is about 7.1-fold lower.

In turn, `C[C@H](NC(=O)C(F)(F)F)c1ccc(OC2CCN(c3ccnc(OCC(F)F)c3)C2)cc1` (some centres unmarked) [Example 2.113] yielded a half-maximal inhibitory concentration (IC50) of 77 nM.

For the compound `CCCOc1cc(N2CC[C@@H](Oc3ccc([C@H](C)NC(=O)c4cncs4)cc3)C2)ccn1` [Example 9.64], the half-maximal inhibitory concentration (IC50) was found to be 35 nM.

Regarding `Cc1nocc1C(=O)N[C@@H](C)c1ccc(OC2CCN(c3ccnc(OCC(F)F)c3)C2)cc1` (some centres unmarked) [Example 2.95], the IC50 was found to be 49 nM.

`COc1c(N2CC[C@@H](Oc3ccc([C@H](C)NC(C)=O)cc3)C2)ccnc1OCC1CC1` [Example 1.127] returned an IC50 of 31 nM.

Regarding `CC(=O)N[C@@H](C)c1ccc(O[C@@H]2CCN(c3ccnc(OC4CCCC4)c3F)C2)cc1` [Example 9.84], the half-maximal inhibitory concentration (IC50) is 45 nM.

The compound `CCC(COC)Oc1cc(N2CC[C@@H](Oc3ccc([C@H](C)NC(C)=O)cc3)C2)ccn1` (some centres unmarked) [Example 9.46] displayed an IC50 of 544 nM.

Compound `CC(=O)N[C@@H](C)c1ccc(OC2CCN(c3ccc(OCC4CC4)nc3)C2)cc1` (some centres unmarked) [Example 1.14] came in with a 50% inhibitory concentration (IC50) of 394 nM.

As to `C[C@H](NC(=O)N(C)C)c1ccc(OC2CCN(c3ccc(F)c(C(F)(F)F)n3)C2)cc1` (some centres unmarked) [Example 1.58], the IC50 turned out to be 55 nM.

With `CC(=O)N[C@@H](C)c1ccc(OC2CCN(c3ccnc(OCC4CC4)c3)C2)cc1` (some centres unmarked) [Example 1.35], the half-maximal inhibitory concentration (IC50) stood at 414 nM. This IC50 is about 7.5-fold higher than that of the compound before.

On to `C[C@H](NC(=O)C1CC1)c1ccc(O[C@@H]2CCN(c3ccnc(OCC4CC4(F)F)c3)C2)cc1` (some centres unmarked) [Example 9.40], for which the concentration for half-maximal inhibition (IC50) stood at 326 nM.

Take `CC(=O)N[C@@H](C)c1ccc(O[C@@H]2CCN(c3ccnc(C(=O)N4CCc5c4ccc(F)c5F)c3)C2)cc1` [Example 8.5]: the half-maximal inhibitory concentration (IC50) was 530 nM. Against the preceding compound, the IC50 is about 1.6-fold higher.

Turning to `CC(=O)N[C@@H](C)c1ccc(O[C@@H]2CCN(c3ccnc(N4CCC(F)(F)C4)c3F)C2)cc1` [Example 1.110], the half-inhibitory concentration (IC50) worked out at 23 nM.

Regarding `C[C@H](NC(=O)C(C)(C)F)c1ccc(OC2CCN(c3ccnc(OCC(F)F)c3)C2)cc1` (some centres unmarked) [Example 2.109], the 50% inhibitory concentration (IC50) stood at 453 nM.

Regarding `C[C@H](NC(=O)C1(C)CC1)c1ccc(OC2CCN(c3ccnc(OCC4CC4)c3)C2)cc1` (some centres unmarked) [Example 2.73], half-maximal inhibition (IC50) was put at 65 nM.

Compound `CCCOc1ccc(N2CC[C@@H](Oc3ccc([C@H](C)NC(=O)c4sc(NC(C)=O)nc4C)cc3)C2)cn1` [Example 1.46] gave a half-maximal inhibitory concentration (IC50) of 149 nM.

`C[C@H](NC(=O)[C@@H](C)O)c1ccc(OC2CCN(c3ccnc(OCC(F)F)c3)C2)cc1` (some centres unmarked) [Example 2.105] had a half-inhibitory concentration (IC50) of 784 nM.

Take `CC(=O)N[C@@H](C)c1ccc(O[C@@H]2CCN(c3ccnc(OCc4cccnc4)c3)C2)cc1` [Example 9.30]: the IC50 amounted to 402 nM.

As to `CC(=O)Nc1nc(C)c(C(=O)N[C@@H](C)c2ccc(OC3CCN(c4ccnc(N5CCC(F)(F)C5)c4F)C3)cc2)s1` (some centres unmarked) [Example 2.123], the IC50 was determined as 58 nM.

For the compound `CCCOc1ccc(N2CCC(Oc3ccc([C@H](C)NC(C)=O)cc3)C2)c(C)n1` (some centres unmarked) [Example 1.37], the IC50 was determined as 360 nM. Against the preceding compound, the IC50 is about 6.2-fold higher.

`CCCN(C)c1cccc(N2CC[C@@H](Oc3ccc([C@H](C)NC(C)=O)cc3)C2)n1` [Example 10.5] gave an IC50 of 182 nM.
